Experimental data taken from patent US20050009813A1 (priority 2001, published 2005).
Values joined by “and” are separate entries in the source; they are usually repeats but may differ in a detail not shown here. Identical values can stand only once. Counter-ions that a name gives are not always drawn.

Experiments:
[1] = system: cholinergic memory deficits; test: Compensation of cholinergic memory deficits in rats with partially destroyed central cholinergic pathways; assay type: in vivo
From the text: It can be inferred therefrom that the effect observable in the swimming test reaches its maximum at a fraction of the dose necessary for maximal activation of the cholinergic system, which according to the state of the art could not be reckoned with.

[2] = system: behavioural despair (acquired immobility); test: Forced Swimming Test (Porsolt Swimming Test) on rats; assay type: in vivo, rat (Sprague Dawley); details: for Acquired Immobility (group mean value in minutes ± standard dev.): three administrations, 5 min test; for Acquired Immobility (group mean value in minutes ± standard dev.) / Change relative to control group (acquired immobility): rat, SD strain
Protocol: To verify whether this MAO-A-inhibitory action in vivo is relevant, deoxypeganine was tested in the “Forced Swimming Test” on rats (R. D. Porsolt et al., Nature 1977; 266(5604): 730-732). […] The time spent with attempts at escape until the animals fall into this psychomotorical inactivation (considered to be a surrogate for depression) is measured; prolonged activity corresponds to antidepressive action.
In the concrete case, […], about 6 weeks old (strain Sprague Dawley); acquired from Charles River UK Ltd.) were divided into 7 groups with 10 animals each. On the first day, after termination of the habituation phase, each animal was placed for 10 minutes in a cylindrical vessel filled about 15 cm high with 25°-warm water; this was followed, after one hour, 19 hours, and 23 hours, by three oral administrations of (depending on the group) either negative control (water), 15 mg/kg positive control (imipramine.HCl), or deoxypeganine.HCl in dosages of 1.0, 2.5, 7.5, 15.0 or 22.5 mg/kg of bodyweight. The volume, administered with the aid of a gastric tube, was in each case 5 ml/kg of bodyweight. One hour after the third of these treatments, each animal was again placed in the vessel for exactly 5 minutes and the time spent in minimal mobility was measured.

[3] = target: T1, monoamino oxidase A from rat brain (Rattus norvegicus, UniProt P21396); test: Inhibition of monoamino oxidase A from rat brain, [3H]serotonine substrate (Medvedev et al.); assay type: biochemical, rat (Wistar strain); details: rat brain MAO-A; 95 μM [3H]serotonine; 1% DMSO in 20 mM potassium dihydrogenphosphate buffer pH 7.4; 10 nM to 10 μM; read-out: semi-maximal inhibitory action (IC50), monoamino oxidase A
T1 sequence (P21396 1-526): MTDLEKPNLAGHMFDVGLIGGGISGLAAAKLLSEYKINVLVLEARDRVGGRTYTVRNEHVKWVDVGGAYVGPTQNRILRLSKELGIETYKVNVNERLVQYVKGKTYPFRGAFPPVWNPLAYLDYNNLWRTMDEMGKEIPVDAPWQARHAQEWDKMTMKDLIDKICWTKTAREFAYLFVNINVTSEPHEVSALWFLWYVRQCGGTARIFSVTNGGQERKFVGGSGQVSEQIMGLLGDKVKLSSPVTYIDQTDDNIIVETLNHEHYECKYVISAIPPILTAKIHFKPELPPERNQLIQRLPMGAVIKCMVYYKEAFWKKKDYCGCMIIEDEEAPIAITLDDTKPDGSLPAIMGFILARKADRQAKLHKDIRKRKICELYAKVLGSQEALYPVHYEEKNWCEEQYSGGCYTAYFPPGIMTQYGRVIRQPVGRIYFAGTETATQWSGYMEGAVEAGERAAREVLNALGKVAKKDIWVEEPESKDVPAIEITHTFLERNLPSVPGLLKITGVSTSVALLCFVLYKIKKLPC
Protocol: The inhibitory action of deoxypeganine in respect of monoamino oxidase A from rat brain (Wistar strain) was measured in the concentration range of from 10 nM to 10 μM according to the method described by Medvedev et al. (Biochem Pharmacol 1994; 47(2): 303-308) and compared with clorogyline as the positive control, whereby in both cases 95 μM [^3H]serotonine in a solution of 1% dimethylsulfoxide in 20 mM of potassium dihydrogenphosphate buffer pH 7.4 served as substrate.

Monoamino oxidase B = target: T2, Monoamino oxidase B (Rattus norvegicus, UniProt P19643); test: Inhibition of monoamino oxidase B
T2 sequence (P19643 1-520): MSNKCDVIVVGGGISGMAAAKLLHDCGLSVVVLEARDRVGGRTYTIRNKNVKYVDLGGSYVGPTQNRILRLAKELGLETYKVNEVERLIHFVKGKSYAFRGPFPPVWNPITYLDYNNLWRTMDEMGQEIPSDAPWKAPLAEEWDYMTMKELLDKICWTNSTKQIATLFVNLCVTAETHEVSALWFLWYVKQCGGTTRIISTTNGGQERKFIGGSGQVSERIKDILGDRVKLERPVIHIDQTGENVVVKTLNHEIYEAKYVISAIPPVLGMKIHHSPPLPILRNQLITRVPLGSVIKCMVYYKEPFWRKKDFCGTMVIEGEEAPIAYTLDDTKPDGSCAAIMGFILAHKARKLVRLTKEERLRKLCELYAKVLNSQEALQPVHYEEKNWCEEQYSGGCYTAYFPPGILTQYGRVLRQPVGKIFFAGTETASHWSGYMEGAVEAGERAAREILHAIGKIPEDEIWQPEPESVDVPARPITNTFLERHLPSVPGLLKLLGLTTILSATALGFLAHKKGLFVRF

psychomotoric activation = test: Open Field Paradigma; assay type: in vivo, Sprague-Dawley rats; details: treatment for 2 weeks, daily doses of 2.5 to 22.5 mg/kg
From the text: Since such results can in principle also be obtained by psychomotorically activating substances which have no anti-depressive action, the effect of deoxypeganine was also examined, with the same dose range, in the so-called Open Field Paradigma. Here one makes use of the fact that it is stressful for rats to stay in an open, bright area, and therefore such situations are avoided by the rats if possible.

Question: How did the “compensation of cholinergic memory deficits, in words” value ([1]; 22.5 mg/kg oral) turn out when c1ccc2c(c1)CN1CCCC1=N2 [deoxypeganine, 1,2,3,9-tetrahydropyrrolo[2,1-b]quinazoline] was run?
Answer: had not yet reached its maximum value

Question: And the “compensation of cholinergic memory deficits, in words” value ([1]; oral dose of 7.5 mg/kg)?
Answer: not yet statistically significant

Question: What about the “effectiveness in forced swimming test, in words” value ([2]; 2.5 mg/kg) of the same compound?
Answer: only partially effective

Question: What about the “effectiveness in forced swimming test, in words” value ([2]; dose of 1 mg/kg) of the same compound?
Answer: not yet effective

Question: What about the “dose of maximal action in the Porsolt test” value ([2]; p.o., comparable to the antidepressant imipramine) of the same compound?
Answer: 7.5 mg/kg

Question: And the IC50 [3]?
Answer: 1490 nM

Question: And the “inhibition of Type B enzyme (MAO-B), in words” value (Monoamino oxidase B; in vitro)?
Answer: not significantly inhibited

Question: And the inhibition at 10 µM (Monoamino oxidase B; read-out: inhibition of monoamino oxidase B)?
Answer: 15 to 20%

Question: And the “psychomotoric activation in open field, in words” value (psychomotoric activation)?
Answer: no indication of psychomotoric activation

Question: With Cl.c1ccc2c(c1)CN1CCCC1=N2 [deoxypeganine hydrochloride] as the compound, how does the “Acquired Immobility (group mean value in minutes ± standard dev.)” value ([2]; 1.0 mg/kg p.o.) read?
Answer: 3.46 ± 0.83 min

Question: And the “Change relative to control group (acquired immobility)” value (shortened to “Change relative to control group”) ([2]; 1.0 mg/kg p.o.)?
Answer: +0.3%

Question: What about the “Acquired Immobility (group mean value in minutes ± standard dev.)” value ([2]; 2.5 mg/kg p.o.) of the same compound?
Answer: 2.80 ± 1.02 min

Question: What about the “Change relative to control group” value ([2]; 2.5 mg/kg p.o.) of the same compound?
Answer: −18.8%

Question: What about the “Change relative to control group” value ([2]; 7.5 mg/kg p.o., hydrochloride) of the same compound?
Answer: −47.2% and −41.4%

Question: And the “Change relative to control group” value ([2]; 15 mg/kg p.o.)?
Answer: −44.1%

Question: And the “Change relative to control group” value ([2]; 22.5 mg/kg p.o.)?
Answer: −43.8%

Question: How did the “Change relative to control group” value ([2]; 15 mg/kg p.o., HCl) turn out when CN(C)CCCN1c2ccccc2CCc2ccccc21 [imipramine HCl, reference compound] was run?
Answer: −56.5% and −58.9%
